Results: PubChem BioAssay (NCI)
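Where inhibition never reached the appropriate level, the endpoint shown equals the highest concentration tested. Otherwise, values were interpolated linearly from a five-concentration, 48-hour dose response in 96-well plates. Abbreviation: GI50, concentration required for 50% inhibition of growth. TGI is the concentration that stops growth completely.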

Assays:
Experiment in all cases: NCI anticancer screen, dose series, 48 h
[1] = test system: 786-0 renal
[2] = test system: A498 renal
[3] = test system: A549 NSCLC
[4] = test system: ACHN renal
[5] = test system: BT-549 breast
[6] = test system: CAKI-1 renal
[7] = test system: CCRF-CEM leukemia
[8] = test system: COLO 205 colon
[9] = test system: DU-145 prostate
[10] = test system: EKVX NSCLC
[11] = test system: HCC-2998 colon
[12] = test system: HCT-116 colon
[13] = test system: HCT-15 colon
[14] = test system: HL-60(TB) leukemia
[15] = test system: HOP-62 NSCLC
[16] = test system: HOP-92 NSCLC
[17] = test system: HS 578T breast
[18] = test system: HT29 colon
[19] = test system: IGROV1 ovarian
[20] = test system: K-562 leukemia
[21] = test system: KM12 colon
[22] = test system: LOX IMVI melanoma
[23] = test system: M14 melanoma
[24] = test system: MALME-3M melanoma
[25] = test system: MCF7 breast
[26] = test system: MDA-MB-231 breast
[27] = test system: MDA-MB-435
[28] = test system: MDA-MB-468 breast
[29] = test system: MOLT-4 leukemia
[30] = test system: NCI-H226 lung
[31] = test system: NCI-H23 lung
[32] = test system: NCI-H460 lung
[33] = test system: NCI-H522 lung
[34] = test system: NCI/ADR-RES ovarian
[35] = test system: OVCAR-3 ovarian
[36] = test system: OVCAR-4 ovarian
[37] = test system: OVCAR-5 ovarian
[38] = test system: OVCAR-8 ovarian
[39] = test system: PC-3 prostate
[40] = test system: RPMI-8226 leukemia
[41] = test system: RXF 393 renal
[42] = test system: SF-268 CNS
[43] = test system: SF-295 CNS
[44] = test system: SF-539 CNS
[45] = test system: SK-MEL-2 melanoma
[46] = test system: SK-MEL-28 melanoma
[47] = test system: SK-MEL-5 melanoma
[48] = test system: SK-OV-3 ovarian
[49] = test system: SN12C renal
[50] = test system: SNB-19 CNS
[51] = test system: SNB-75 CNS
[52] = test system: SR leukemia
[53] = test system: SW-620 colon
[54] = test system: T-47D breast
[55] = test system: TK-10 renal
[56] = test system: U251 CNS
[57] = test system: UACC-257 melanoma
[58] = test system: UACC-62 melanoma
[59] = test system: UO-31 renal

Question: `C=CC(=O)Nc1nc(-c2cccc(NS(=O)(=O)c3cccc4c(N(C)C)cccc34)c2)cs1` was tested. Which GI50 [1] did it give?
Answer: 2.6 µM

Question: What about the TGI [1] of the same compound?
Answer: 11.7 µM

Question: What about the GI50 [2] of the same compound?
Answer: 8.83 µM

Question: And the TGI [2]?
Answer: 18.1 µM

Question: And the GI50 [3]?
Answer: 9.27 µM

Question: And the TGI [3]?
Answer: 21.7 µM

Question: And the GI50 [4]?
Answer: 3.87 µM

Question: And the TGI [4]?
Answer: 13.3 µM

Question: What about the GI50 [5] of the same compound?
Answer: 2.72 µM

Question: And the TGI [5]?
Answer: 9.07 µM

Question: What about the GI50 [6] of the same compound?
Answer: 3.74 µM

Question: And the TGI [6]?
Answer: 13.2 µM

Question: What about the GI50 [7] of the same compound?
Answer: 1.69 µM

Question: What about the TGI [7] of the same compound?
Answer: 5.33 µM

Question: And the GI50 [8]?
Answer: 9.08 µM

Question: And the TGI [8]?
Answer: 25.3 µM

Question: And the GI50 [9]?
Answer: 5.4 µM

Question: And the TGI [9]?
Answer: 15.2 µM

Question: What about the GI50 [10] of the same compound?
Answer: 10.5 µM

Question: What about the TGI [10] of the same compound?
Answer: 20.5 µM

Question: What about the GI50 [11] of the same compound?
Answer: 9.22 µM

Question: And the TGI [11]?
Answer: 18.7 µM

Question: And the GI50 [12]?
Answer: 2.38 µM

Question: And the TGI [12]?
Answer: 10.5 µM

Question: What about the GI50 [13] of the same compound?
Answer: 2.77 µM

Question: And the TGI [13]?
Answer: 11 µM

Question: What about the GI50 [14] of the same compound?
Answer: 2.62 µM

Question: What about the TGI [14] of the same compound?
Answer: 14.7 µM

Question: And the GI50 [15]?
Answer: 11.4 µM

Question: What about the TGI [15] of the same compound?
Answer: 22.2 µM

Question: And the GI50 [16]?
Answer: 6.16 µM

Question: And the TGI [16]?
Answer: 16.4 µM

Question: And the GI50 [17]?
Answer: 4.06 µM

Question: And the TGI [17]?
Answer: 26.7 µM

Question: And the GI50 [18]?
Answer: 2.96 µM

Question: What about the TGI [18] of the same compound?
Answer: 12.2 µM

Question: What about the GI50 [19] of the same compound?
Answer: 7.67 µM

Question: And the TGI [19]?
Answer: 16.4 µM

Question: What about the GI50 [20] of the same compound?
Answer: 3.15 µM

Question: And the TGI [20]?
Answer: 74.8 µM

Question: And the GI50 [21]?
Answer: 6.28 µM

Question: And the TGI [21]?
Answer: 18 µM

Question: What about the GI50 [22] of the same compound?
Answer: 1.61 µM

Question: What about the TGI [22] of the same compound?
Answer: 4.24 µM

Question: And the GI50 [23]?
Answer: 4.34 µM

Question: And the TGI [23]?
Answer: 16 µM

Question: What about the GI50 [24] of the same compound?
Answer: 8.53 µM

Question: And the TGI [24]?
Answer: 17.6 µM

Question: And the GI50 [25]?
Answer: 2.71 µM

Question: What about the TGI [25] of the same compound?
Answer: 11.2 µM

Question: And the GI50 [26]?
Answer: 3.75 µM

Question: What about the TGI [26] of the same compound?
Answer: 13.2 µM

Question: And the GI50 [27]?
Answer: 3.02 µM

Question: And the TGI [27]?
Answer: 13.9 µM

Question: What about the GI50 [28] of the same compound?
Answer: 1.96 µM

Question: What about the TGI [28] of the same compound?
Answer: 6.71 µM

Question: And the GI50 [29]?
Answer: 2.42 µM

Question: And the TGI [29]?
Answer: 12.5 µM

Question: What about the GI50 [30] of the same compound?
Answer: 10.9 µM

Question: And the TGI [30]?
Answer: 25.8 µM

Question: What about the GI50 [31] of the same compound?
Answer: 10.4 µM

Question: And the TGI [31]?
Answer: 20.8 µM

Question: And the GI50 [32]?
Answer: 7.81 µM

Question: And the TGI [32]?
Answer: 18.7 µM

Question: And the GI50 [33]?
Answer: 2.75 µM

Question: What about the TGI [33] of the same compound?
Answer: 11.9 µM

Question: What about the GI50 [34] of the same compound?
Answer: 3.78 µM

Question: What about the TGI [34] of the same compound?
Answer: 18.3 µM

Question: What about the GI50 [35] of the same compound?
Answer: 2.1 µM

Question: What about the TGI [35] of the same compound?
Answer: 10.5 µM

Question: And the GI50 [36]?
Answer: 8.29 µM

Question: And the TGI [36]?
Answer: 17.8 µM

Question: What about the GI50 [37] of the same compound?
Answer: 9.28 µM

Question: And the TGI [37]?
Answer: 18.6 µM

Question: What about the GI50 [38] of the same compound?
Answer: 7.94 µM

Question: And the TGI [38]?
Answer: 22.5 µM

Question: And the GI50 [39]?
Answer: 4.7 µM

Question: What about the TGI [39] of the same compound?
Answer: 19.7 µM

Question: What about the GI50 [40] of the same compound?
Answer: 2.1 µM

Question: What about the TGI [40] of the same compound?
Answer: 11.3 µM

Question: What about the GI50 [41] of the same compound?
Answer: 2.74 µM

Question: What about the TGI [41] of the same compound?
Answer: 11.7 µM

Question: What about the GI50 [42] of the same compound?
Answer: 5.92 µM

Question: What about the TGI [42] of the same compound?
Answer: 18.2 µM

Question: And the GI50 [43]?
Answer: 9.01 µM

Question: And the TGI [43]?
Answer: 18.8 µM

Question: And the GI50 [44]?
Answer: 1.79 µM

Question: And the TGI [44]?
Answer: 6.03 µM

Question: What about the GI50 [45] of the same compound?
Answer: 9.35 µM

Question: And the TGI [45]?
Answer: 19.3 µM

Question: What about the GI50 [46] of the same compound?
Answer: 5.99 µM

Question: What about the TGI [46] of the same compound?
Answer: 15.3 µM

Question: What about the GI50 [47] of the same compound?
Answer: 6.19 µM

Question: And the TGI [47]?
Answer: 15.8 µM

Question: And the GI50 [48]?
Answer: 14 µM

Question: And the TGI [48]?
Answer: 25.9 µM

Question: What about the GI50 [49] of the same compound?
Answer: 4.56 µM

Question: What about the TGI [49] of the same compound?
Answer: 14.5 µM

Question: What about the GI50 [50] of the same compound?
Answer: 10.2 µM

Question: And the TGI [50]?
Answer: 19.8 µM

Question: And the GI50 [51]?
Answer: 1.86 µM

Question: What about the TGI [51] of the same compound?
Answer: 10.1 µM

Question: What about the GI50 [52] of the same compound?
Answer: 2 µM

Question: And the TGI [52]?
Answer: 20.3 µM

Question: What about the GI50 [53] of the same compound?
Answer: 2.49 µM

Question: What about the TGI [53] of the same compound?
Answer: 10.2 µM

Question: And the GI50 [54]?
Answer: 4.64 µM

Question: And the TGI [54]?
Answer: 17.7 µM

Question: And the GI50 [55]?
Answer: 3.07 µM

Question: And the TGI [55]?
Answer: 10.6 µM

Question: And the GI50 [56]?
Answer: 9.04 µM

Question: And the TGI [56]?
Answer: 18.9 µM

Question: What about the GI50 [57] of the same compound?
Answer: 9.31 µM

Question: What about the TGI [57] of the same compound?
Answer: 19.4 µM

Question: What about the GI50 [58] of the same compound?
Answer: 3.74 µM

Question: And the TGI [58]?
Answer: 13.1 µM

Question: What about the GI50 [59] of the same compound?
Answer: 5.43 µM

Question: What about the TGI [59] of the same compound?
Answer: 15.1 µM
